The text below walks through data of patent US12421229B2, “Hydropyrido[1,2-α]pyrazine compounds for the treatment of autoimmune disease” (Hoffmann-La Roche Inc., priority 2019, dated 2025).

This experiment has as its target T1, human TLR9 (Homo sapiens, UniProt Q9NR96).
T1 construct: host or cells: HEK293 (HEK-Blue hTLR9)
T1 sequence (Q9NR96 26-1032): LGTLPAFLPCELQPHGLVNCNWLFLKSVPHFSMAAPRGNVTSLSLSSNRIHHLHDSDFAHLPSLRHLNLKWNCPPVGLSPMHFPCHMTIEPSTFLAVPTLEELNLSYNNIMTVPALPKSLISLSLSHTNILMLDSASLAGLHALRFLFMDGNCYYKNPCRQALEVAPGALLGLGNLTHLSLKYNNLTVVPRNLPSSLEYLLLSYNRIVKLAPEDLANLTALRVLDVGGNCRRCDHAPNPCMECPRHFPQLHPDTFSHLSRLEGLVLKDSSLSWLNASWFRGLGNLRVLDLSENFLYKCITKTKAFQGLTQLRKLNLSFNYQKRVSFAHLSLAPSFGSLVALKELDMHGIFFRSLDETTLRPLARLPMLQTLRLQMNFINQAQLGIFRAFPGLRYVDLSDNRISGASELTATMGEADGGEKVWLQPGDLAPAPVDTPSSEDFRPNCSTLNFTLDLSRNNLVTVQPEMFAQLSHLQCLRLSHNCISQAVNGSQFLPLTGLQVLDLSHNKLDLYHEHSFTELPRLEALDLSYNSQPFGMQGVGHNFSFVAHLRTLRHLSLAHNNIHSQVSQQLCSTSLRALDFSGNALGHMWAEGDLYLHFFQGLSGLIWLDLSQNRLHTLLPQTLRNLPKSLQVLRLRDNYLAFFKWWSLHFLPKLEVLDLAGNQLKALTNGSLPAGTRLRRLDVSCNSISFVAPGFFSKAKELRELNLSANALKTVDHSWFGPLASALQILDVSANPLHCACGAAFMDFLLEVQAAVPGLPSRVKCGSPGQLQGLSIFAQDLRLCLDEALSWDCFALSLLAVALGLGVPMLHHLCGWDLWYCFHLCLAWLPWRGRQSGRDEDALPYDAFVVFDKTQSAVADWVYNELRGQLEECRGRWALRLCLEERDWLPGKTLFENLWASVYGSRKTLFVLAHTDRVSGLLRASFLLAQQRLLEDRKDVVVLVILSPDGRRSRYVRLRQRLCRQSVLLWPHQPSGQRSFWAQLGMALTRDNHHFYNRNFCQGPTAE
Nature of the experiment: HEK293-Blue-hTLR-9 cells assay. The class given is cell-based. The following applies: HEK293-Blue-hTLR9 cells, ODN2006 stimulation, 20 hrs, SEAP reporter; read-out: HEK/hTLR9 IC50. An excerpt:
A stable HEK293-Blue-hTLR-9 cell line was purchased from InvivoGen (Cat. #: hkb-htlr9, San Diego, California, USA). These cells were originally designed for studying the stimulation of human TLR9 by monitoring the activation of NF-κB. A SEAP (secreted embryonic alkaline phosphatase) reporter gene was placed under the control of the IFN-β minimal promoter fused to five NF-κB and AP-1-binding sites. The SEAP was induced by activating NF-κB and AP-1 via stimulating HEK-Blue hTLR9 cells with TLR9 ligands. Therefore the reporter expression was declined by TLR9 antagonist under the stimulation of a ligand, such as ODN2006 (Cat. #: tlrl-2006-1, Invivogen, San Diego, California, USA), for incubation of 20 hrs. The cell culture supernatant SEAP reporter activity was determined using QUANTI-Blue™ kit (Cat. #: rep-qb1, Invivogen, San Diego, California, USA) at a wavelength of 640 nm, a detection medium that turns purple or blue in the presence of alkaline phosphatase.
HEK293-Blue-hTLR9 cells were incubated at a density of 250,000˜450,000 cells/mL in a volume of 170 μL in a 96-well plate in Dulbecco's Modified Eagle's medium (DMEM) containing 4.5 g/L glucose, 50 U/mL penicillin, […], 2 mM L-glutamine, 10% (v/v) heat-inactivated fetal bovine serum with addition of 20 μL test compound in a serial dilution in the presence of final DMSO at 1% and 10 μL of 20 uM ODN2006 in above DMEM, perform incubation under 37° C. in a CO2 incubator for 20 hrs. Then 20 μL of the supernatant from each well was incubated with 180 μL Quanti-blue substrate solution at 37° C. for 2 h and the absorbance was read at 620˜655 nm using a spectrophotometer. The signaling pathway that TLR9 activation leads to downstream NF-κB activation has been widely accepted, and therefore similar reporter assay was modified for evaluating TLR9 antagonist.
With `C[C@@H]1CN(c2ccc(C#N)c3ncccc23)C[C@@H]2C[C@H](c3ccc(N4CCNCC4)nc3)CCN21` [Example 4, 5-[(4R,8R,9aS)-4-methyl-8-(6-piperazin-1-yl-3-pyridyl)-1,3,4,6,7,8,9,9a-octahydropyrido[1,2-a]pyrazin-2-yl]quinoline-8-carbonitrile], the IC50 is 86 nM. On to `CO[C@H]1CN(c2ccc([C@@H]3CCN4[C@@H](C3)CN(c3ccc(C#N)c5ncccc35)C[C@H]4C)cn2)C[C@H]1N` [Example 12, 5-[(4R,8R,9aS)-8-[6-[(3R,4S)-3-amino-4-methoxy-pyrrolidin-1-yl]-3-pyridyl]-4-methyl-1,3,4,6,7,8,9,9a-octahydropyrido[1,2-a]pyrazin-2-yl]quinoline-8-carbonitrile], for which the IC50 stood at 66 nM. As to `C[C@@H]1CN(c2ccc(C#N)c3ncccc23)C[C@@H]2C[C@@H](Oc3cnc(N4CCNCC4)nc3)CCN21` [Example 18, 5-[(4R,8S,9aS)-4-methyl-8-(2-piperazin-1-ylpyrimidin-5-yl)oxy-1,3,4,6,7,8,9,9a-octahydropyrido[1,2-a]pyrazin-2-yl]quinoline-8-carbonitrile], the IC50 was found to be 60 nM.

As for `CO[C@@H]1CN(c2ccc(C3CN([C@@H]4CCN5[C@@H](C4)CN(c4ccc(C#N)c6ncccc46)C[C@H]5C)C3)cc2)C[C@H]1N` [Example 30, 5-[(4R,8R,9aS)-8-[3-[4-[(3R,4R)-3-amino-4-methoxy-pyrrolidin-1-yl]phenyl]azetidin-1-yl]-4-methyl-1,3,4,6,7,8,9,9a-octahydropyrido[1,2-a]pyrazin-2-yl]quinoline-8-carbonitrile], the IC50 turned out to be 78 nM. Consider `C[C@@H]1CN(c2ccc(C#N)c3ncccc23)C[C@@H]2C[C@@H](c3ccc(C4CNCCO4)cc3)CCN21` (stereo partly drawn) [Example 24, 5-[(4R,8S,9aS)-4-methyl-8-(4-morpholin-2-ylphenyl)-1,3,4,6,7,8,9,9a-octahydropyrido[1,2-a]pyrazin-2-yl]quinoline-8-carbonitrile], for which the IC50 turned out to be 82 nM. In the case of `C[C@@H]1CN(c2ccc(C#N)c3ncccc23)CC2C[C@H](c3ccc(N4CCNCC4)cc3)CCN21` (stereo partly drawn) [Example 3, 5-[(4R,8R)-4-methyl-8-(4-piperazin-1-ylphenyl)-1,3,4,6,7,8,9,9a-octahydropyrido[1,2-a]pyrazin-2-yl]quinoline-8-carbonitrile], the IC50 came out at 92 nM. Turning to `CO[C@@H]1CN(c2ccc([C@@H]3CCN4[C@@H](C3)CN(c3ccc(C#N)c5ncccc35)C[C@H]4C)cn2)C[C@H]1N` [Example 14, 5-[(4R,8R,9aS)-8-[6-[(3R,4R)-3-amino-4-methoxy-pyrrolidin-1-yl]-3-pyridyl]-4-methyl-1,3,4,6,7,8,9,9a-octahydropyrido[1,2-a]pyrazin-2-yl]quinoline-8-carbonitrile], the IC50 was 78 nM. Take `[2H]c1ccc2c(N3C[C@@H]4C[C@H](N5CCN(c6ccncc6)CC5)CCN4[C@H](C)C3)ccc(C#N)c2n1` [Example 37, 5-[(4R,8R,9aS)-4-methyl-8-[4-(4-pyridyl)piperazin-1-yl]-1,3,4,6,7,8,9,9a-octahydropyrido[1,2-a]pyrazin-2-yl]-2-deuterio-quinoline-8-carbonitrile]: the IC50 came out at 34 nM. For `C[C@@H]1CN(c2ccc(C#N)c3ncccc23)C[C@@H]2C[C@H](c3ccc(N4CCOC[C@@H](N)C4)nc3)CCN21` [Example 23, 5-[(4R,8R,9aS)-8[6-[(6S)-6-amino-1,4-oxazepan-4-yl]-3-pyridyl]-4-methyl-1,3,4,6,7,8,9,9a-octahydropyrido[1,2-a]pyrazin-2-yl]quinoline-8-carbonitrile], the IC50 turned out to be 75 nM. In the case of `C[C@@H]1CN(c2ccc(C#N)c3ncccc23)C[C@@H]2C[C@@H](Oc3cncc(N4CCNCC4)c3)CCN21` [Example 29, 5-[(4R,8S,9aS)-4-methyl-8-[(5-piperazin-1-yl-3-pyridyl)oxy]-1,3,4,6,7,8,9,9a-octahydropyrido[1,2-a]pyrazin-2-yl]quinoline-8-carbonitrile] it was 89 nM; in that of `[2H]c1ccc2c(N3C[C@@H]4C[C@H](Nc5ccc(C[C@@H]6CNCCO6)cc5)CCN4[C@H](C)C3)ccc(C#N)c2n1` [Example 22, 5-[(4R,8R,9aS)-4-methyl-8-[4-[[(2R)-morpholin-2-yl]methyl]anilino]-1,3,4,6,7,8,9,9a-octahydropyrido[1,2-a]pyrazin-2-yl]-2-deuterio-quinoline-8-carbonitrile], 84 nM. As for `CO[C@H]1CN(c2ccc([C@@H]3CCN4[C@@H](C3)CN(c3ccc(C#N)c5ncccc35)C[C@H]4C)cn2)C[C@@H]1N` [Example 6, 5-[(4R,8R,9aS)-8-[6-[(3S,4S)-3-amino-4-methoxy-pyrrolidin-1-yl]-3-pyridyl]-4-methyl-1,3,4,6,7,8,9,9a-octahydropyrido[1,2-a]pyrazin-2-yl]quinoline-8-carbonitrile], the IC50 is 87 nM.

On to `C[C@@H]1CN(c2ccc(C#N)c3ncccc23)C[C@@H]2C[C@H](c3ccc(N4CCNCC4)nc3)CCN21` (stereo in doubt) [Example 2, 5-[(4R,8R)-4-methyl-8-(6-piperazin-1-yl-3-pyridyl)-1,3,4,6,7,8,9,9a-octahydropyrido[1,2-a]pyrazin-2-yl]quinoline-8-carbonitrile], for which the IC50 amounted to 81 nM. `[2H]c1ccc2c(N3C[C@@H]4C[C@@H](N5CC(c6ccc(N7C[C@@H](N)[C@H](OC)C7)cc6)C5)CCN4[C@H](C)C3)ccc(C#N)c2n1` [Example 36]: the IC50 amounted to 32 nM.

As to `C[C@@H]1CN(c2ccc(C#N)c3ncccc23)C[C@@H]2C[C@H](c3ccc(N4CC(N)C4)nc3)CCN21` [Example 7, 5-[(4R,8R,9aS)-8-[6-(3-aminoazetidin-1-yl)-3-pyridyl]-4-methyl-1,3,4,6,7,8,9,9a-octahydropyrido[1,2-a]pyrazin-2-yl]quinoline-8-carbonitrile], the IC50 was 184 nM. In the case of `CO[C@@H]1CN(c2ccc([C@@H]3CCN4[C@@H](C3)CN(c3ccc(C#N)c5ncccc35)C[C@H]4C)cn2)C[C@@H]1N` [Example 13, 5-[(4R,8R,9aS)-8-[6-[(3S,4R)-3-amino-4-methoxy-pyrrolidin-1-yl]-3-pyridyl]-4-methyl-1,3,4,6,7,8,9,9a-octahydropyrido[1,2-a]pyrazin-2-yl]quinoline-8-carbonitrile] it was 94 nM. As to `C[C@@H]1CN(c2ccc(C#N)c3ncccc23)C[C@@H]2C[C@H](c3ccc([C@@H]4CNCCO4)cc3)CCN21` [Example 27, 5-[(4R,8R,9aS)-4-methyl-8-[4-[(2R)-morpholin-2-yl]phenyl]-1,3,4,6,7,8,9,9a-octahydropyrido[1,2-a]pyrazin-2-yl]quinoline-8-carbonitrile], the IC50 came to 72 nM. With `C[C@@H]1CN(c2ccc(C#N)c3ncccc23)C[C@@H]2CC(c3ccc(C[C@@H]4CNCCO4)cc3)CCN21` (stereo in doubt) [Example 25, 5-[(4R,8R,9aS)-4-methyl-8-[4-[[(2R)-morpholin-2-yl]methyl]phenyl]-1,3,4,6,7,8,9,9a-octahydropyrido[1,2-a]pyrazin-2-yl]quinoline-8-carbonitrile], the IC50 is 78 nM.
